The source of these data is patent US20240327428A1, “Inhibitors of human immunodeficiency virus replication, method of making and method of using thereof” (ASCLETIS BIOSCIENCE CO., LTD., priority 2023, published 2024).

Holding throughout (assay type): cell-based
The subject of data set [1] is HIV-1IIIB. Briefly: Inhibition of HIV-1IIIB infection in MT-4 cells (XTT staining). To be noted: HIV-1IIIB in MT-4 cells; for EC50: 6 days incubation, XTT, read-out: EC50 (50% inhibition of virus replication). How it is done: (§1) The compounds were evaluated for inhibition of HIV-1IIIB infection and cellular toxicity in MT-4 cells.
(§2) The MT-4 cells and […] used in the HIV-1 inhibition assays were obtained from the AIDS Research and Reference Program (Rockville, MD) and propagated as recommended by the supplier.
(§3) Fifty microliters (50 μL) of MT-4 cells at a density of 1.0×10^4 cells/well in 10% complete RPMI-1640 (10% FBS supplemented with 1% L-glutamine and 1% Penicillin/Streptomycin) media were plated in a 96-well flat bottom plate. One-hundred microliters (100 μL) of each compound at 12 concentrations were added in triplicate followed by 50 μL of HIV-1IIIB at a pre-determined titer. The cultures were incubated for 6 days at 37° C./5% CO2. Following the incubation, the cells were stained with XTT for evaluation of compound efficacy and cellular toxicity, as described below.
(§4) Efficacy and toxicity values for the test materials were derived by measuring the reduction of the tetrazolium dye XTT (2,3-bis(2-methoxy-4-nitro-5-sulfophenyl)-5-[(phenylamino)carbonyl]-2H-tetrazolium hydroxide). XTT in metabolically active cells is metabolized by the mitochondrial enzyme NADPH oxidase to a soluble formazan product. XTT solution was prepared daily as a stock of 1 mg/mL in RPMI-1640 without additives. Phenazine methosulfate (PMS) solution was prepared at 0.15 mg/mL in DPBS and stored in the dark at −20° C. XTT/PMS stock was prepared immediately before use by adding 40 μL of PMS per mL of XTT solution. Fifty μL (50 μL) of XTT/PMS was added to each well of the plate and the plate incubated for 4 hours at 37° C. The 4-hour incubation has been empirically determined to be within the linear response range for XTT dye reduction with the indicated numbers of cells for each assay. The plates were sealed and inverted several times to mix the soluble formazan product and the plate was read at 450 nm (650 nm reference wavelength) with a Molecular Devices SpectraMax Plus 384 96 well plate format spectrophotometer.
(§5) Microsoft Excel 2010 in combination with XLfit4 was used to analyze and graph the data. EC50 (50% inhibition of virus replication), TC50 (50% reduction in cell viability) and a therapeutic index (TC50/EC50) are provided. Raw data for both antiviral activity and toxicity with a graphic representation of the data are provided in a printout summarizing the compound activity.

The subject of data set [2] is MT-4 cells. Nature of the data set: Cellular toxicity in MT-4 cells (XTT staining). The settings on record: 6 days incubation, read-out: TC50 (50% reduction in cell viability). Here is the method:
as §1, §2, §3, §4, §5
For orientation: Formazan colour is commonly taken as a measure of viable cells.

Data set [3] can be described thus: Cellular toxicity in MT-4 cells (XTT staining). The settings on record: human, 6 days incubation, read-out: TC50 (50% reduction in cell viability). Here is the method:
as §1, §2, §3, §4, §5

The structures appear in SMILES notation. Read-outs that look alike come from different tables or passages of the source.

Broadly, the EC50 is the concentration at which the effect is half-maximal.

In the case of `Cn1nc(NS(C)(=O)=O)c2c(Cl)ccc(-n3c([C@H](Cc4cc(F)cc(F)c4)NC(=O)Cn4nc(C(F)(F)F)c5c4C(F)(F)[C@@H]4C[C@H]54)nc4onc(-c5ccccc5)c4c3=O)c21` (atropisomer, axis not shown) [Compound 38], in data set [1], the EC50 is over 100 nM. Moreover, the CC50 in data set [2] is over 100 nM.

On to `Cc1nsc2nc([C@H](Cc3cc(F)cc(F)c3)NC(=O)Cn3nc(C(F)(F)F)c4c3C(F)(F)[C@@H]3C[C@H]43)n(-c3ccc(Cl)c4c(NS(C)(=O)=O)nn(C)c34)c(=O)c12` (atropisomer, axis not shown) [Compound 45], for which, in data set [1], the “Therapeutic Index (TC50/EC50)” value is over 212.8 and the EC50 came to 0.47 nM. Also, the CC50 in data set [2] is over 100 nM.

As to `CS(=O)(=O)Nc1nn(CC(F)(F)F)c2c(-n3c([C@H](Cc4cc(F)cc(F)c4)NC(=O)Cn4nc(C(F)(F)F)c5c4C(F)(F)[C@@H]4C[C@H]54)nc4ncsc4c3=O)ccc(Cl)c12` (atropisomer, axis not shown) [Compound 31], in data set [1], the “Therapeutic Index (TC50/EC50)” value is over 384.6 and the EC50 came out at 0.26 nM. The CC50 in data set [2] is over 100 nM.

For the compound `Cn1nc(NS(C)(=O)=O)c2c(Cl)ccc(-n3c([C@H](Cc4cc(F)cc(F)c4)NC(=O)Cn4nc(C(F)(F)F)c5c4C(F)(F)[C@@H]4C[C@H]54)nc4ncsc4c3=O)c21` (atropisomer, axis not shown) [Compound 36], in data set [1], the “Therapeutic Index (TC50/EC50)” value is over 625.0 and the EC50 was found to be 0.16 nM. Further, the CC50 in data set [2] is over 100 nM.

With `Cn1nc(NS(C)(=O)=O)c2c(Cl)ccc(-n3c([C@H](Cc4cc(F)cc(F)c4)NC(=O)Cn4nc(C(F)(F)F)c5c4C(F)(F)C4CC54)nc4nc(S(C)(=O)=O)sc4c3=O)c21` (stereo partly drawn) [Compound 30], the EC50 in data set [1] was over 100 nM. The CC50 in data set [2] was over 100 nM.

On to `Cn1nc(NS(C)(=O)=O)c2c(Cl)ccc(-n3c([C@H](Cc4cc(F)cc(F)c4)NC(=O)Cn4nc(C(F)(F)F)c5c4C(F)(F)[C@@H]4C[C@H]54)nc4sccc4c3=O)c21` (atropisomer, axis not shown) [Compound 33], for which, in data set [1], the “Therapeutic Index (TC50/EC50)” value is over 294.1 and the EC50 came to 0.34 nM. Also, the CC50 in data set [2] is over 100 nM.

On to `Cn1nc(NS(C)(=O)=O)c2c(Cl)ccc(-n3c([C@H](Cc4cc(F)cc(F)c4)NC(=O)Cn4nc(C(F)(F)F)c5c4C(F)(F)[C@@H]4C[C@H]54)nc4sc(-c5ccc(F)cc5)cc4c3=O)c21` (atropisomer, axis not shown) [Compound 42], for which the “Therapeutic Index (TC50/EC50)” value in data set [1] is over 26.4. Besides, the EC50 in data set [1] (Human immunodeficiency virus 1, MT4, 144 h) was determined as 3.79 nM. In data set [3], the CC50 at 6 days was over 100 nM.

`Cn1nc(NS(C)(=O)=O)c2c(Cl)ccc(-n3c([C@H](Cc4cc(F)cc(F)c4)NC(=O)Cn4nc(C(F)(F)F)c5c4C(F)(F)[C@@H]4C[C@H]54)nc4sccc4c3=O)c21` (atropisomer, axis not shown) [Compound 32]: the EC50 in data set [1] was over 100 nM. Besides, in data set [3], the CC50 at 6 days was over 100 nM.
